Laboratory results reported in ChEMBL document CHEMBL4507282, “Data for DCP probe BI-1950” (2021).

Key:
[1] = biological target: Dual specificity mitogen-activated protein kinase kinase 4 (Homo sapiens) (UniProt P45985); conditions: Compound concentration 1000.0 nM
[2] = test system: Receptor-type tyrosine-protein kinase FLT3 (Homo sapiens), P36888 [UNDEFINED MUTATION]; conditions: Compound concentration 1000.0 nM
[3] = biological target: Protein kinase C iota type (Homo sapiens) (UniProt P41743); conditions: Compound concentration 1000.0 nM
[4] = biological target: Serine/threonine-protein kinase D2 (Homo sapiens) (UniProt Q9BZL6); conditions: Compound concentration 1000.0 nM
[5] = test system: Receptor-type tyrosine-protein kinase FLT3 (Homo sapiens), P36888 [K663Q]; conditions: Compound concentration 1000.0 nM
[6] = biological target: Serine/threonine-protein kinase WNK3 (Homo sapiens) (UniProt Q9BYP7); conditions: Compound concentration 1000.0 nM
[7] = biological target: Serine/threonine-protein kinase 33 (Homo sapiens) (UniProt Q9BYT3); conditions: Compound concentration 1000.0 nM
[8] = biological target: Serine/threonine-protein kinase 25 (Homo sapiens) (UniProt O00506); conditions: Compound concentration 1000.0 nM
[9] = biological target: Ribosomal protein S6 kinase alpha-6 (Homo sapiens) (UniProt Q9UK32); conditions: Compound concentration 1000.0 nM
[10] = biological target: D(1B) dopamine receptor (Homo sapiens) (UniProt P21918); conditions: Compound concentration 10.0 uM
[11] = biological target: Myosin light chain kinase, smooth muscle (Homo sapiens) (UniProt Q15746); conditions: Compound concentration 1000.0 nM
[12] = biological target: 5-hydroxytryptamine receptor 1B (Homo sapiens) (UniProt P28222); conditions: Compound concentration 10.0 uM
[13] = biological target: Maternal embryonic leucine zipper kinase (Homo sapiens) (UniProt Q14680); conditions: Compound concentration 1000.0 nM
[14] = biological target: Ankyrin repeat and protein kinase domain-containing protein 1 (Homo sapiens) (UniProt Q8NFD2); conditions: Compound concentration 1000.0 nM
Chain of Ankyrin repeat and protein kinase domain-containing protein 1 (Homo sapiens) (Q8NFD2 whole entry, the tested form may be a part): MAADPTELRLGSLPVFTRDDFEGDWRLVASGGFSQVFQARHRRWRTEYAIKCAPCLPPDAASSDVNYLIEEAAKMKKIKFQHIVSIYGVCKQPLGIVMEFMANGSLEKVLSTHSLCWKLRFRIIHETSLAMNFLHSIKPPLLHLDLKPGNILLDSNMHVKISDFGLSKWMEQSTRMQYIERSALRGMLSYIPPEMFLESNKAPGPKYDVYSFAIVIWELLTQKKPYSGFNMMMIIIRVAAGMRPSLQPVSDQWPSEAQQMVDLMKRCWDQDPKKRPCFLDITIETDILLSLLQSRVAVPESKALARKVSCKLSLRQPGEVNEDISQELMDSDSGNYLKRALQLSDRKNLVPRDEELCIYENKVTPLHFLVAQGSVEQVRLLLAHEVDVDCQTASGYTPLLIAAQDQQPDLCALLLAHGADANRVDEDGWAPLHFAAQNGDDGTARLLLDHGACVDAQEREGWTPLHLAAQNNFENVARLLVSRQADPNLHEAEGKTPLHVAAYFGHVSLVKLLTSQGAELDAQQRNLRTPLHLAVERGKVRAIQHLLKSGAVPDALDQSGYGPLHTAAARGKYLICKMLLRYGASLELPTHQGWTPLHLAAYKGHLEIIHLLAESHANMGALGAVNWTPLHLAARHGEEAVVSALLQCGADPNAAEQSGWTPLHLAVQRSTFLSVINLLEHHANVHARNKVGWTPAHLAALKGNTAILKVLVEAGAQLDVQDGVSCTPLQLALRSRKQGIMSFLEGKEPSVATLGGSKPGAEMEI

[15] = test system: Mast/stem cell growth factor receptor Kit (Homo sapiens), P10721 [V559D]; conditions: Compound concentration 1000.0 nM
Chain of Mast/stem cell growth factor receptor Kit (Homo sapiens), P10721 [V559D] (P10721 whole entry V559D): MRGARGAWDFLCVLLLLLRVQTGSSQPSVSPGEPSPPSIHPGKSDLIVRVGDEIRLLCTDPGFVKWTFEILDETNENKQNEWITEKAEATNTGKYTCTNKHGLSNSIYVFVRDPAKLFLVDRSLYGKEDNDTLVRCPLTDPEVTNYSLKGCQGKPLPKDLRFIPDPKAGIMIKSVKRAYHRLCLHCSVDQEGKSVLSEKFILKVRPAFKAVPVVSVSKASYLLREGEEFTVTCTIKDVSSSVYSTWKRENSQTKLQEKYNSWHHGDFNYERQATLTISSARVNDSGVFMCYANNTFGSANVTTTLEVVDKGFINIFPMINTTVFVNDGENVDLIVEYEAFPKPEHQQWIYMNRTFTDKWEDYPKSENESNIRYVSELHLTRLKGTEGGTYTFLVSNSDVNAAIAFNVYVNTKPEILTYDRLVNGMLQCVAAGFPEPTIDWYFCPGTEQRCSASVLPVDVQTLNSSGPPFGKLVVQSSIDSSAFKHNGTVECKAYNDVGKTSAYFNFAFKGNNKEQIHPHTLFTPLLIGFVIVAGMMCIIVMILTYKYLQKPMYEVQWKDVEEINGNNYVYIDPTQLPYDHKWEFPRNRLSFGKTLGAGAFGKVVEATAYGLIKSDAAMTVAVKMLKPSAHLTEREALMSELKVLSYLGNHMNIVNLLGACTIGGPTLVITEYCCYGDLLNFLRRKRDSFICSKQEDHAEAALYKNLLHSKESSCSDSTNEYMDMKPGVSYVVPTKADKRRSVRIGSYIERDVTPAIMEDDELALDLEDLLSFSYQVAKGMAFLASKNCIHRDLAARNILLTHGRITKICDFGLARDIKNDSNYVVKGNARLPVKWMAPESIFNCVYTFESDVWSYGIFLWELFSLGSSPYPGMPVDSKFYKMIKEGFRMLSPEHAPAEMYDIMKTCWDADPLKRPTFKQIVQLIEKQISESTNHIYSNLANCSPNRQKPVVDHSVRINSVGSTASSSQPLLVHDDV

[16] = biological target: Receptor tyrosine-protein kinase erbB-4 (Homo sapiens) (UniProt Q15303); conditions: Compound concentration 1000.0 nM
[17] = biological target: Casein kinase I isoform epsilon (Homo sapiens) (UniProt P49674); conditions: Compound concentration 1000.0 nM
[18] = biological target: Inhibitor of nuclear factor kappa-B kinase subunit alpha (Homo sapiens) (UniProt O15111); conditions: Compound concentration 1000.0 nM
Chain of Inhibitor of nuclear factor kappa-B kinase subunit alpha (Homo sapiens) (O15111 whole entry): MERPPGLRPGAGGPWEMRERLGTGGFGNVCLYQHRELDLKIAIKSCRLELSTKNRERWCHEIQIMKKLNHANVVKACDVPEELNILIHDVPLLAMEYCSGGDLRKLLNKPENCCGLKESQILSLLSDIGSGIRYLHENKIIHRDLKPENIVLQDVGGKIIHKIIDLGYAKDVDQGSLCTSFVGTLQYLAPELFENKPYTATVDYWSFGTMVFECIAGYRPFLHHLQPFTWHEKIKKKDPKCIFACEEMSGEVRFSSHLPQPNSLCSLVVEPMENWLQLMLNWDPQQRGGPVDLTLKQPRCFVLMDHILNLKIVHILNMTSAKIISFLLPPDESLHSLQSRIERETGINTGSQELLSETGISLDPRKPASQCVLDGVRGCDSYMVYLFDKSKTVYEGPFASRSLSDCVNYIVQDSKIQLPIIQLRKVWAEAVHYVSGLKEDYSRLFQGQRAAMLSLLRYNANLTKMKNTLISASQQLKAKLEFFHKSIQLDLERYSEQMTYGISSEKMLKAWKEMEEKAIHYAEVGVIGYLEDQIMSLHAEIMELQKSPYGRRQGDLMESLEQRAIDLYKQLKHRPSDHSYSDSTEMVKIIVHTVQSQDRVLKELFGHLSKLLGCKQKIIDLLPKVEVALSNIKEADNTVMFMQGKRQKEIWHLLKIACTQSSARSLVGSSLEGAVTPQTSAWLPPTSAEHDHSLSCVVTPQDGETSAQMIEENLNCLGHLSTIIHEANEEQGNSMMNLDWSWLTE

[19] = biological target: Mitogen-activated protein kinase kinase kinase 4 (Homo sapiens) (UniProt Q9Y6R4); conditions: Compound concentration 1000.0 nM
[20] = test system: Hepatocyte growth factor receptor (Homo sapiens), P08581 [M1250T]; conditions: Compound concentration 1000.0 nM
[21] = biological target: Serine/threonine-protein kinase 17B (Homo sapiens) (UniProt O94768); conditions: Compound concentration 1000.0 nM
Chain of Serine/threonine-protein kinase 17B (Homo sapiens) (O94768 whole entry): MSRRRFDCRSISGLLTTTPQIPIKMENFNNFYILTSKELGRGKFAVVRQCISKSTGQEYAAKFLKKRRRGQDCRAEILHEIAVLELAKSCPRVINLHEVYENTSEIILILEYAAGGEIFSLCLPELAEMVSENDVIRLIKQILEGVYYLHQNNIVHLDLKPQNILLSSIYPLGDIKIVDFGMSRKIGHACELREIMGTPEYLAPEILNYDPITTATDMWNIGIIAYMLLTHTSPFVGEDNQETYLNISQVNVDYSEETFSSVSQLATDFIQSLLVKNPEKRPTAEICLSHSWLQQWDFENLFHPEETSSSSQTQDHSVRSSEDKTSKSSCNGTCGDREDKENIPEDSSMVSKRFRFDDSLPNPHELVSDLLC

[22] = biological target: Mitogen-activated protein kinase 9 (Homo sapiens) (UniProt P45984); conditions: Compound concentration 1000.0 nM
[23] = biological target: Platelet-derived growth factor receptor beta (Homo sapiens) (UniProt P09619); conditions: Compound concentration 1000.0 nM
[24] = biological target: Serine/threonine-protein kinase 16 (Homo sapiens) (UniProt O75716); conditions: Compound concentration 1000.0 nM
[25] = biological target: Phosphatidylinositol 5-phosphate 4-kinase type-2 beta (Homo sapiens) (UniProt P78356); conditions: Compound concentration 1000.0 nM
[26] = biological target: Mitogen-activated protein kinase kinase kinase 1 (Homo sapiens) (UniProt Q13233); conditions: Compound concentration 1000.0 nM
[27] = biological target: Casein kinase II subunit alpha' (Homo sapiens) (UniProt P19784); conditions: Compound concentration 1000.0 nM
Chain of Casein kinase II subunit alpha' (Homo sapiens) (P19784 whole entry, looked up): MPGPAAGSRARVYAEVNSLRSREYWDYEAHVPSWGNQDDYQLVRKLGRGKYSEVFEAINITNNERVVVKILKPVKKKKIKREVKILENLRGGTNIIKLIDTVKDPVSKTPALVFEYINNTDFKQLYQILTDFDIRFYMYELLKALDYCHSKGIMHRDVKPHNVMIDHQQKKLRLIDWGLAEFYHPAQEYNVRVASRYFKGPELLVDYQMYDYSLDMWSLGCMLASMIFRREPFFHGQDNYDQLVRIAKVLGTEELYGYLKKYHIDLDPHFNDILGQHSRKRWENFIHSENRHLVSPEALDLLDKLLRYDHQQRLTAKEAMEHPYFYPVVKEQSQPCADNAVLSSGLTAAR

[28] = biological target: Mitogen-activated protein kinase 7 (Homo sapiens) (UniProt Q13164); conditions: Compound concentration 1000.0 nM
Chain of Mitogen-activated protein kinase 7 (Homo sapiens) (Q13164 2-816 limits assumed): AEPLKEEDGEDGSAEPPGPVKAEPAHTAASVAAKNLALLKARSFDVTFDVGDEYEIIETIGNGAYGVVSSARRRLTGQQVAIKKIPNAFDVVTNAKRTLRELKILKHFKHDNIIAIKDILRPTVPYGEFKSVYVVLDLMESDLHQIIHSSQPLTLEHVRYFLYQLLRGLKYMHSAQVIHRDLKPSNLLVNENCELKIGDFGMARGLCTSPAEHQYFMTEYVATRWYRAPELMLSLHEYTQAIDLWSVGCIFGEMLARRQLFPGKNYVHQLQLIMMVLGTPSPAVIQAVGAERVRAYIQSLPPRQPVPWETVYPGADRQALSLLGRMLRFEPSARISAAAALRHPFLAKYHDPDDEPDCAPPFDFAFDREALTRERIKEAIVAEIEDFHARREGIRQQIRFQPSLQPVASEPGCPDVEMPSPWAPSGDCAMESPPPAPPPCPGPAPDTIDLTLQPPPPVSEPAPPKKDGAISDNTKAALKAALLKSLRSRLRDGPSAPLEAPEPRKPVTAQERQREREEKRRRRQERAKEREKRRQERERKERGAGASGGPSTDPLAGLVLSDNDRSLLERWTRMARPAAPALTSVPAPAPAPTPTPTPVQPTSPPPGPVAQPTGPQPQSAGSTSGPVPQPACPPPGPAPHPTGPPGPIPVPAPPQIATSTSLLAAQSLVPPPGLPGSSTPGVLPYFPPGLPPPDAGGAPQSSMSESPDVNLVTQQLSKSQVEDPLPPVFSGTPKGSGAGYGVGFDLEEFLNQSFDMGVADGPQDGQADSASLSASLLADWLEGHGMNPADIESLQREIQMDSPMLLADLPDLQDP

[29] = biological target: Mitogen-activated protein kinase kinase kinase 6 (Homo sapiens) (UniProt O95382); conditions: Compound concentration 1000.0 nM
[30] = biological target: BMP-2-inducible protein kinase (Homo sapiens) (UniProt Q9NSY1); conditions: Compound concentration 1000.0 nM
[31] = biological target: Dual specificity mitogen-activated protein kinase kinase 7 (Homo sapiens) (UniProt O14733); conditions: Compound concentration 1000.0 nM
Chain of Dual specificity mitogen-activated protein kinase kinase 7 (Homo sapiens) (O14733 whole entry): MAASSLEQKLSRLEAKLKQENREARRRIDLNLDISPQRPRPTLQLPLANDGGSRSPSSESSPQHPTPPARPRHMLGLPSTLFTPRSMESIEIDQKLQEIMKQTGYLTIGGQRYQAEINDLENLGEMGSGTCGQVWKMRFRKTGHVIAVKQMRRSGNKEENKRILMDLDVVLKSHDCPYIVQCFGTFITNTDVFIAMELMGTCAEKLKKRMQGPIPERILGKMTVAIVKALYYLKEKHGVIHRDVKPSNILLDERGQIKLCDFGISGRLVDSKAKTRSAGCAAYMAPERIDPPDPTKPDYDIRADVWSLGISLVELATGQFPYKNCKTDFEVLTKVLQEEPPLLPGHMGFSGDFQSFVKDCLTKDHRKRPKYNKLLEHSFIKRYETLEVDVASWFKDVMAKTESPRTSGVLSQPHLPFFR

[32] = biological target: Angiopoietin-1 receptor (Homo sapiens) (UniProt Q02763); conditions: Compound concentration 1000.0 nM
[33] = biological target: G protein-coupled receptor kinase 4 (Homo sapiens) (UniProt P32298); conditions: Compound concentration 1000.0 nM
Chain of G protein-coupled receptor kinase 4 (Homo sapiens) (P32298 whole entry, looked up): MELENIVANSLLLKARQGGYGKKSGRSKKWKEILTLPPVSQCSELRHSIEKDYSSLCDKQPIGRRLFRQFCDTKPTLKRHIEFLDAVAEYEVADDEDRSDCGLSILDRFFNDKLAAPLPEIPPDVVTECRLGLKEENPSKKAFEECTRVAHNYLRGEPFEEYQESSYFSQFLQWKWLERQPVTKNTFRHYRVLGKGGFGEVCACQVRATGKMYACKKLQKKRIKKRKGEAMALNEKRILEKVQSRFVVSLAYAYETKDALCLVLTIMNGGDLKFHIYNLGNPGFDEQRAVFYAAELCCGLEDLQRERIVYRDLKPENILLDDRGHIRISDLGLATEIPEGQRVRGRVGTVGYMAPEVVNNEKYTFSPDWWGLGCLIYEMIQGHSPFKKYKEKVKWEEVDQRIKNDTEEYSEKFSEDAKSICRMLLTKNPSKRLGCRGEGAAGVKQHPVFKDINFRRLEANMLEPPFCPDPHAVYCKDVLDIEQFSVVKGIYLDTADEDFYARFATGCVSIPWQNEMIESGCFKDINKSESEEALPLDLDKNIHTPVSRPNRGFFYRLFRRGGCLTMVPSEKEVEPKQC

[34] = biological target: Mitogen-activated protein kinase 8 (Homo sapiens) (UniProt P45983); conditions: Compound concentration 1000.0 nM
[35] = test system: Phosphatidylinositol 4,5-bisphosphate 3-kinase catalytic subunit alpha isoform (Homo sapiens), P42336 [H1047Y]; conditions: Compound concentration 1000.0 nM
[36] = biological target: Proto-oncogene tyrosine-protein kinase ROS (Homo sapiens) (UniProt P08922); conditions: Compound concentration 1000.0 nM
[37] = biological target: T1, 5-hydroxytryptamine receptor 3A (Homo sapiens) (UniProt P46098); conditions: Compound concentration 10.0 uM
T1 sequence (whole entry): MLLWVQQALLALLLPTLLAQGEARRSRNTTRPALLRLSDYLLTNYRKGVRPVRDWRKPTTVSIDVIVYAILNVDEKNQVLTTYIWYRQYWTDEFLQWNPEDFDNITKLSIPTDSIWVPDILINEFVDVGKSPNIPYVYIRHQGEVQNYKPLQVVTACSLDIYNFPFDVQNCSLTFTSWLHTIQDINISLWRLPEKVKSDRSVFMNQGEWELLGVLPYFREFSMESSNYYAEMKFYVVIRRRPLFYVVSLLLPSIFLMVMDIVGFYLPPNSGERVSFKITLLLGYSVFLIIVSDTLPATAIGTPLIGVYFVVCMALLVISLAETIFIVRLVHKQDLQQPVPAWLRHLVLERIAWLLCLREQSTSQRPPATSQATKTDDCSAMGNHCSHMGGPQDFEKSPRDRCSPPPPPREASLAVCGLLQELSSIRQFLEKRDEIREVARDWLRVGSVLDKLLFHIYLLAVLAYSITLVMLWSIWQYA

[38] = biological target: Interleukin-1 receptor-associated kinase 1 (Homo sapiens) (UniProt P51617); conditions: Compound concentration 1000.0 nM

C[C@H](NC(=O)c1cnc2n1[C@](C)(Cc1ccc(C#N)cc1)C(=O)N2c1cc(Cl)c(F)c(Cl)c1)C(=O)NC1(c2ccccn2)CC1 [BI 1950]
inactive: residual activity [1] 100% | residual activity [2] 100% | residual activity [3] 100% | residual activity [4] 100% | residual activity [5] 100% | residual activity [6] 78% | residual activity [7] 88% | residual activity [8] 100% | residual activity [9] 91% | inhibition [10] 14% | residual activity [11] 100% | inhibition [12] 16.5% | residual activity [13] 86% | residual activity [14] 100% | residual activity [15] 91% | residual activity [16] 100% | residual activity [17] 82% | residual activity [18] 100% | residual activity [19] 97% | residual activity [20] 100% | residual activity [21] 100% | residual activity [22] 92% | residual activity [23] 91% | residual activity [24] 100% | residual activity [25] 100% | residual activity [26] 100% | residual activity [27] 99% | residual activity [28] 100% | residual activity [29] 100% | residual activity [30] 100% | residual activity [31] 100% | residual activity [32] 91% | residual activity [33] 100% | residual activity [34] 81% | residual activity [35] 100% | residual activity [36] 100% | inhibition [37] -2.51% | residual activity [38] 100%

C[C@@]1(Cc2ccc(C#N)cc2)C(=O)N(c2cc(Cl)cc(Cl)c2)c2ncc(C(=O)NC3(c4nc(C5CCC5)no4)CC3)n21 [BI 9446]
inactive: residual activity [1] 100% | residual activity [2] 100% | residual activity [3] 87% | residual activity [4] 100% | residual activity [5] 100% | residual activity [6] 100% | residual activity [7] 100% | residual activity [8] 100% | residual activity [9] 100% | inhibition [10] 7.21% | residual activity [11] 100% | inhibition [12] 17.5% | residual activity [13] 89% | residual activity [14] 100% | residual activity [15] 99% | residual activity [16] 100% | residual activity [17] 100% | residual activity [18] 100% | residual activity [19] 100% | residual activity [20] 100% | residual activity [21] 100% | residual activity [22] 100% | residual activity [23] 100% | residual activity [24] 100% | residual activity [25] 97% | residual activity [26] 100% | residual activity [27] 100% | residual activity [28] 100% | residual activity [29] 82% | residual activity [30] 100% | residual activity [31] 100% | residual activity [32] 92% | residual activity [33] 100% | residual activity [34] 100% | residual activity [35] 100% | residual activity [36] 100% | inhibition [37] 17.9% | residual activity [38] 100%
